Patent US20190315823A1, “SMALL CATIONIC ANTI-BIOFILM AND IDR PEPTIDES” (priority 2013, published 2019)
Ends that are not written are not given here.

Tests used:
[1] = test system: LPS-stimulated human peripheral blood mononuclear cells (IL1-β); format: cell-based; settings: Table 12, cells stimulated with 10 ng/ml LPS; for IL1β Production: LPS alone 1313 (HH2 derivatives), 1927 (1018 derivatives), 2455 (1002 and hybrid peptides) pg/ml
[2] = test system: methicillin resistant Staphylococcus aureus (MRSA) biofilm; settings: approximate peptide concentration […] (around 3 μg/ml); compared to untreated samples
Method in brief: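 Peptide was present from inoculation onward, with bacteria seeded at 1/100 from overnight cultures into BM2 biofilm medium or Luria Broth. Crystal violet staining of surface-attached cells (A595) quantified biofilm reduction at 22–46 h. K. pneumoniae was additionally screened in a real-time Bioflux flow device for some peptides.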

[3] = test system: human peripheral blood mononuclear cells (MCP-1); assay: SPOT-synthesized derivative screen: production of chemokine MCP-1; format: cell-based; settings: Table 12, No LPS, human PBMC, peptide at ~18-24 μM; for MCP1: background subtracted 139 (HH2 derivatives), 170 (1018 derivatives), 242 (1002 and hybrid peptides) pg/ml
Method in brief: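 MCP-1 was quantified by capture ELISA in cleared culture supernatants of treated human peripheral blood mononuclear cells. Cells came from heparinized volunteer blood via Ficoll gradient and were seeded at 0.75 to 1×10^6 cells/ml (37 °C, 5% CO2).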

| Substance | Fold change in IL1β relative to no peptide LPS stimulated cells [1] | IL1β Production [1] | % Biofilm inhibition [2] | Fold increase in MCP1 cf. untreated cells [3] | MCP1 [3] |
| --- | --- | --- | --- | --- | --- |
| 1018-W2: single substituted 1018 peptide (VWLIVAVRIWRR-NH2) [Peptide 1018-W2] | 0.73 | 962 pg/mL | 68% | 1.5 | 83 pg/mL |
| 1018-L10: single substituted 1018 peptide (VRLIVAVRILRR-NH2) [Peptide 1018-L10] | 0.10 | 127 pg/mL | 38% | 0.7 | -60 pg/mL |
| 1002-K10: single substituted 1002 peptide (VQRWLIVWRKRK-NH2) [Peptide 1002-K10] | 0.05 | 127 pg/mL | 0% | 0.9 | -32.5 pg/mL |
| 1018-V10: single substituted 1018 peptide (VRLIVAVRIVRR-NH2) [Peptide 1018-V10] | 0.28 | 370 pg/mL | 50% | 1.2 | 29 pg/mL |
| 1002-G6: single substituted 1002 peptide (VQRWLGVWRIRK-NH2) [Peptide 1002-G6] | 0.45 | 1098 pg/mL | 26% | 0.9 | -36.2 pg/mL |
| 1018-Q4: single substituted 1018 peptide (VRLQVAVRIWRR-NH2) [Peptide 1018-Q4] | 0.35 | 458 pg/mL | 39% | 0.4 | -104 pg/mL |
| 1018-Q8: single substituted 1018 peptide (VRLIVAVQIWRR-NH2) [Peptide 1018-Q8] | 0.10 | 127 pg/mL | 51% | 0.4 | -104 pg/mL |
| HH2-G6: single substituted HH2 peptide (VQLRIGVAVIRA-NH2) | 1.08 | 1423 pg/mL | 33% | 8.6 | 1287 pg/mL |
| 1018-K9: single substituted 1018 peptide (VRLIVAVRKWRR-NH2) [Peptide 1018-K9] | 0.23 | 300 pg/mL | 60% | 1.1 | 15 pg/mL |
| HH2C-HH2N: derivative of HH2, 1002 and 1018 made by SPOT synthesis (VAVIRAVQLRIR-NH2) | 0.31 | 769 pg/mL | 61% | 2.0 | 239.0 pg/mL |
| 1002-L2: single substituted 1002 peptide (VLRWLIVWRIRK-NH2) [Peptide 1002-L2] | 0.05 | 127 pg/mL | 72% | 9.1 | 1968.2 pg/mL |
| 1002-A4: single substituted 1002 peptide (VQRALIVWRIRK-NH2) [Peptide 1002-A4] | 0.27 | 655 pg/mL | 52% | 0.9 | -36.2 pg/mL |
| 1018-K4: single substituted 1018 peptide (VRLKVAVRIWRR-NH2) [Peptide 1018-K4] | 0.30 | 393 pg/mL | 41% | 1.2 | 40 pg/mL |
| HH2-K3: single substituted HH2 peptide (VQKRIRVAVIRA-NH2) | 1.34 | 1761 pg/mL | 14% | 11 | 1763 pg/mL |
| 1002-K3: single substituted 1002 peptide (VQKWLIVWRIRK-NH2) [Peptide 1002-K3] | 0.06 | 137 pg/mL | 61% | 3.4 | 576.2 pg/mL |
| 1018-L5: single substituted 1018 peptide (VRLILAVRIWRR-NH2) [Peptide 1018-L5] | 0.12 | 162 pg/mL | 71% | 3.0 | 335 pg/mL |
| HH2-L9: single substituted HH2 peptide (VQLRIRVALIRA-NH2) | 1.04 | 1359 pg/mL | 65% | 10 | 1527 pg/mL |
| 1002-A10: single substituted 1002 peptide (VQRWLIVWRARK-NH2) [Peptide 1002-A10] | 0.05 | 127 pg/mL | 45% | 2.0 | 245.4 pg/mL |
| HH2-Q11: single substituted HH2 peptide (VQLRIRVAVIQA-NH2) | 0.78 | 1020 pg/mL | 63% | 17 | 2759 pg/mL |
| 1018-R9: single substituted 1018 peptide (VRLIVAVRRWRR-NH2) [Peptide 1018-R9] | 0.24 | 310 pg/mL | 59% | 0.9 | -10 pg/mL |
| HH2-W8: single substituted HH2 peptide (VQLRIRVWVIRA-NH2) | 0.42 | 553 pg/mL | 75% | 81 | 13556 pg/mL |
| 1002-A5: single substituted 1002 peptide (VQRWAIVWRIRK-NH2) [Peptide 1002-A5] | 0.07 | 182 pg/mL | 70% | 0.9 | -36.2 pg/mL |
| HH2-R10: single substituted HH2 peptide (VQLRIRVAVRRA-NH2) | 1.53 | 2003 pg/mL | 73% | 5.1 | 701 pg/mL |
| 1002-R4: single substituted 1002 peptide (VQRRLIVWRIRK-NH2) [Peptide 1002-R4] | 0.34 | 834 pg/mL | 36% | 0.9 | -36.2 pg/mL |
| 1002-Q6: single substituted 1002 peptide (VQRWLQVWRIRK-NH2) [Peptide 1002-Q6] | 0.35 | 859 pg/mL | 22% | 0.9 | -36.2 pg/mL |
